According to patent US20220213092A1, “BICYCLIC PYRAZOLE BRUTON'S TYROSINE KINASE INHIBITORS” (AbbVie Inc., priority 2020, published 2022):

Tests used:
MAP2K1 = MAP2K1 (Homo sapiens, UniProt Q02750); experiment: Other kinase MSA: MAP2K1; assay type: biochemical; details: 25 μM ATP, ERKtide substrate; pre-activation of ERK 30 min, detection after 60 minutes; read-out: IC50, Enzyme MAP2K1
Procedure: Kinase activity, unless otherwise indicated, was measured in vitro using an electrophoretic mobility shift assay (MSA). The phosphorylation of a peptide substrate by BTK and other kinases was measured. The kinase reactions were assembled in a total volume of 25 μL per well in 384 well plates. The following was added to each well: compound buffer (or control); enzyme buffer; and substrate buffer, as further described below. […]
Enzyme and compound/inhibitor were optionally pre-incubated. […] The kinase activity for the kinases in Table 3 were measured at 3 hours incubation time, except that in the case of MAP2K1 and MAP2K2 assay, pre-activation of ERK was done for 30 min with 6 μM of ATP, and then the detection of activated ERK in the presence of compounds was done after 60 minutes of incubation.
The terminated reactions were analyzed using a 12 channel LABCHIP® 3000 microfluidic detection instrument (available from Caliper Life Sciences, Waltham, Mass.). […] As substrate and product peptides were separated, two peaks of fluorescence were observed. Change in the relative fluorescence intensity of the substrate and product peaks was the parameter measured, reflecting enzyme activity. […] Capillary electrophoregrams (RDA acquisition files) were analyzed using HTS Well Analyzer software (available from Caliper Life Sciences, Waltham, Mass.). […]

[1] = tested on: recombinant human CYP1A2, 2B6, 2C8, 2C9, 2C19, 2D6, 3A4, and FMO3; experiment: Human recombinant CYP and FMO3 phenotyping; assay type: in vitro ADME; details: of CYPs tested (1A2, 2B6, 2C8, 2C9, 2D6, 3A4) and FMO3
Procedure: The involvement of CYPs and FMO3 in the metabolism of Compound 6 was evaluated using recombinant human CYP1A2, 2B6, 2C8, 2C9, 2C19, 2D6, 3A4, and FMO3 (CYPs and FMO3 from Corning Life Sciences). Incubations contained 0.5 μM of Compound 6, 100 pmol/mL of each CYP isoform, or 0.5 mg/mL of FMO3 isoform, and 1 mM NADPH cofactor in 50 mM potassium phosphate buffer at pH 7.4. All incubations were pre-warmed at 37° C. for 10 minutes, followed by addition of cofactor to initiate the reaction. Incubations were carried out for 60 minutes at 37° C. At each time point (0, 5, 10, 20, 30 and 60 minutes), an aliquot of sample in the incubation pleases was taken and dispersed into a quench plate containing 3-fold volume of acetonitrile and carbutamide as an internal standard. The samples were centrifuged, and the supernatant was analyzed using LC-MS/MS.
Quantitation of the substrate depletion in recombinant CYPs and FMO3 phenotyping, chemical inhibition in hepatocytes, and enzyme kinetics assays were analyzed by monitoring substrate depletion using LC-MS/MS.
The intrinsic clearance of Compound 6 in rCYP and hepatocytes was determined by integrating the parent peak on the chromatograms, and the extent of substrate depletion measured by comparing parent peak area loss over time. […]

MAP2K1, sequence (Q02750 whole entry, species assumed): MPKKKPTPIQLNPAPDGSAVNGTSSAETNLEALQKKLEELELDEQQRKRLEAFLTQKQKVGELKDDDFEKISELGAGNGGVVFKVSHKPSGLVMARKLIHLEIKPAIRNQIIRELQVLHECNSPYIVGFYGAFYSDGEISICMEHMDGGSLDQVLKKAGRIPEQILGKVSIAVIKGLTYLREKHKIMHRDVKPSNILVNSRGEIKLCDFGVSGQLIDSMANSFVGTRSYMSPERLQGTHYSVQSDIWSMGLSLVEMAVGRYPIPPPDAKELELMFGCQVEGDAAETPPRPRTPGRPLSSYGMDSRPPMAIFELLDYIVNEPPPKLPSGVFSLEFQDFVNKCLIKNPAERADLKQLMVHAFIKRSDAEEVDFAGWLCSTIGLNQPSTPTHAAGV

SMILES	IC50 (MAP2K1)	major contributing enzyme in metabolism [1]
C=CC(=O)N1CCC([C@@H]2CCNc3c(C(N)=O)c(-c4ccc(Oc5ccccc5)cc4)nn32)CC1 [Compound A, reference compound]	41.3 nM	–
C=CC(=O)N1CCN([C@@H]2CCNc3c2nn(-c2ccc(Oc4ccccc4)cc2)c3C(N)=O)CC1 [Example 6, (7R)-2-(4-phenoxyphenyl)-7-[4-(prop-2-enoyl)piperazin-1-yl]-4,5,6,7-tetrahydro-2H-pyrazolo[4,3-b]pyridine-3-carboxamide]	–	CYP3A4 was identified as the major contributing enzyme
